Data set [1] has as its system human red blood cells. Nature of the data set: Hemolytic activity. In kind it is cell-based. Particulars: FIG. 3D. How it is done: (§1) Methods: • Human whole blood was obtained from the Houston Gulf Coast Blood Center. • Red blood cells were isolated by the following method: Human blood (in EDTA) was diluted 1:1 with PBS, underlay with 4 mL of Histopaque-1077 (SIGMA) and was centrifuged at 400 g for 30 min. • Red blood cells (RBC) were collected and washed three times with PBS. • 10% suspensions of RBC were prepared with PBS before use. • 50 μL of RBC suspension was added to 2 mL of saponins with different concentration. • The suspension was mixed by vortexing then left to sit at room temperature for 60 minutes. • The suspension was centrifuged at 3000 rpm for 5 min. Absorbance of the supernatant was measured at 540 nm.

Data set [2] concerns red blood cells (hemolysis). Kind of data set: Hemolytic activity. In kind it is cell-based, human. Particulars: human red blood cells (isolated from whole blood); human red blood cells, FIG. 5A. How it is done:
as §1

Data set [3] concerns HeLa cells. Nature of the data set: MTT assay HeLa. The settings on record: Homo sapiens. In kind it is cell-based. The protocol:
Cells. Human cancer cell lines were obtained from American Type Culture Collection: HTB-9 (bladder), HeLa-S3 (cervix), DU145 (prostate), H460 (lung), MCF-7 (breast), K562 (leukocytes), HCT116 (colon), HepG2 (liver), U2OS (bone), T98G (brain), SK-MEL-5 (Skin) and OVCAR-3 (ovary). The cells were grown in following culture media: HeLa-53, DU145, MCF-7, Hep-G2 and T98G are in MEN (Earle's salts); HTB-9, H460, K562 and OVCAR-3 in RPMI-1640; HCT-116 and U2OS in McCoy-5A. They are supplemented with 10% fetal calf serum, glutamine and antibiotics, and incubated in an incubator with 5% CO2 humidified at 37° C.
MTT Assay. The procedure for MTT assay followed the method described by Carmichael et al. (1987) with modifications. […] The formazan (product of the reduction of tetrazolium by viable cells) formed and was dissolved with DMSO and the O.D. at 490 nm, and was measured by an ELISA reader. The MTT level of the cells before drug-treatment was also measured (T0). The % cell-growth (% G) is calculated as: % G=(TD−T0/TC−T0)×100(1), where TC or TD represents O.D. readings of control or drug-treated cells. When T0>TD, then the cytotoxicity (LC) expressed as % of the control is calculated as: % LC=(TD−T0/T0)×100(2).

Data set [4] deals with (Mouth) KB cells. Kind of data set: MTT assay KB. It counts as cell-based. Particulars: Homo sapiens. A general note: Tetrazolium dyes change colour on reduction, which living cells bring about.
The subject of data set [5] is RMG2. Kind of data set: MTT assay RMG2. The settings on record: Homo sapiens; RMG2, Clear cell. It counts as cell-based. How it is done:
Majority of ovarian cancers arise from the surface epithelium of ovary, most of them belong to the histological subtypes of clear cell and serous carcinoma. We obtained 10 more human ovarian carcinoma cell-lines of these histological subtypes for these studies. The inhibition activity exerted by Xanifolia-Y was determined with MTT assay.

Data set [6] relates to ES2 cells attached to flasks. Kind of data set: Inhibition of cell adhesion to flasks, ES2. It counts as cell-based. The protocol:
(§2) Methods and Results. ES2 or Hey8A cells were plated in T25 flasks with medium containing 5 ug/ml of Xanifolia-Y. Cultures were incubated for 5 hours. Attached cells were removed from flasks by trypsinization and the amounts were counted. Compare to no drug controls, 86±4% of ES2 cells and 67±8% of Hey8A cells were found attached to flasks under this condition. At 5 ug/ml Xanifolia-Y, over 90% of unattached cells are alive as determined by the trypan Blue exclusion assay and by their ability to re-attach to flasks when plating in medium without Xanifolia-Y. However, with 10 ug/ml Xanifolia-Y, less than 40% of cells attached to flasks and many of them are dead cells.
as §2, with “Results:” for “Results.”

Data set [7] deals with blood vessels in ES2 (human ovarian cancer) xenograft tumor. Kind of data set: Genesis of blood vessel in xenograft tumor. It counts as in vivo, Athymic Nu/Nu mice. Particulars: i.p. 2.5 mg/kg on days 10-15 and 18-22, H&E sections. The protocol:
Method: Athymic Nu/Nu mice (5-6 weeks old) are divided into two groups (1 and 2) with 5 animals in each group. On day 0, all mice were transplanted intra-peritoneally with one million ES2 (human ovarian cancer) cells. Animals were randomly divided into two groups:
Group 2: Drug-treatment group. On days 10-15 and 18-22, animals received daily drug administration of Xanifolia-Y, by i.p. route at dosage of 2.5 mg/kg.
Animals with high tumor burden were euthanized and solid tumors were taken out from these mice (between 18-27 days). Tumor tissues fixed with formalin at room temperature. The fixed tissues were sectioned and stained with Haematoxylin and eosin (H&E). The red blood cells inside the micro blood vessels were identified under a microscope.

In brackets after ≈: the same amount, converted by molar mass.

`C/C=C(/C)C(=O)O[C@H]1[C@H](OC(=O)/C(C)=C\C)[C@@]2(CO)C(CC1(C)C)C1=CCC3[C@@]4(C)CC[C@H](O)C(C)(C)C4CC[C@@]3(C)[C@]1(C)[C@@H](O)[C@H]2O` (stereo partly shown) [ACH-Y]: the “hemolytic activity of hydrolysed products of compound Y” value in data set [1] was “reduced hemolytic activity”.
In general, IC50 refers to the concentration needed to halve the response being measured. The molecule `C/C=C(/C)C(=O)O[C@H]1[C@H](OC(=O)/C(C)=C\C)[C@@]2(CO)C(CC1(C)C)C1=CCC3[C@@]4(C)CC[C@H](O[C@@H]5OC(C(=O)O)[C@@H](O)C(O[C@@H]6O[C@@H](CO)C(O)C6O)C5O[C@@H]5OC(CO)[C@H](O)C(O)C5O)C(C)(C)C4CC[C@@]3(C)[C@]1(C)[C@@H](O)[C@H]2O` (stereo partly drawn) [Xanifolia-Y, 3-O-[β-D-galactopyranosyl (1→2)]-α-L-arabinofuranosy (1→3)-β-D-glucuronopyranosyl-21,22-O-diangeloyl-3β, 15α, 16α, 21β, 22α, 28-hexahydroxyolean-12-ene] gave an IC50 at 60 min in data set [2] of 1 µg/mL (≈ 0.876 µM). The 50% inhibitory concentration (IC50) came out at 20 µg/mL (≈ 17.5 µM) in data set [3], 6 µg/mL (≈ 5.26 µM) in data set [4] and 8.8 µM in data set [5]. In addition, the “cells attached to flasks, compared to no drug controls” value in data set [6] (ES2 cells, 5 ug/ml, 5 hours) is 86±4%. In data set [6] (ES2 or Hey8A cells, 5 ug/ml), the “unattached cells alive (trypan Blue exclusion, re-attachment)” value is given as “over 90%”. In addition, in data set [6] (ES2 or Hey8A cells, 10 ug/ml), the “cells attached to flasks” value was “less than 40%”. The “blood vessels in tumor sections” value in data set [7] is given as “more blood vessels were observed in the control Group1 than those in the drug-treated Group 2”; in data set [7] (listed as Xanifolia Y) it was “More blood vessels were observed in the control Group 1 than those in the drug-treated Group 2”.

These data come from patent publication US10213451B2, “Methods and compounds for modulating the secretion or expression of adhesion proteins or angiopoietins of cells” (PACIFIC ARROW LIMITED, priority 2004, dated 2019).
